Assay results published in PubChem BioAssay AID2060907 (Molecular Pharmacology Branch, DTP, NCI, 2025).
pIC50: −log10 of the molar value. Several values for one entry are separate records, joined by “and”; a condition that tells them apart may be missing. Equal entries are not always repeated.

Test system: 388556-164-R-J1-PDC complex spheroid viability
Assay: Anticancer human tumor 388556-164-R-J1-PDC patient-derived colon adenocarcinoma cell line growth inhibition [RAS]
Settings: for viability, T/C: stronger effect = lower value
How it was run: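 Agents were tested in combination matrices in half-log decrements from a top concentration at or near clinical Cmax (10 microM if undetermined). Targets were multi-cell spheroids of tumour lines plus HUVEC and MSC stromal cells.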

[1] = curve of first compound, second compound 0.000949 µM
[2] = curve of first compound, second compound 0.003 µM
[3] = curve of first compound, second compound 0.00949 µM
[4] = curve of first compound, second compound 0.03 µM
[5] = curve of first compound, second compound 0.0949 µM
[6] = curve of first compound, second compound 0.3 µM
[7] = second compound 0.000949 µM, first compound 0.0316 µM
[8] = second compound 0.000949 µM, first compound 0.1 µM
[9] = second compound 0.003 µM, first compound 0.0316 µM
[10] = second compound 0.003 µM, first compound 0.1 µM
[11] = second compound 0.00949 µM, first compound 0.0316 µM
[12] = second compound 0.00949 µM, first compound 0.1 µM
[13] = second compound 0.03 µM, first compound 0.0316 µM
[14] = second compound 0.03 µM, first compound 0.1 µM
[15] = second compound 0.0949 µM, first compound 0.0316 µM
[16] = second compound 0.0949 µM, first compound 0.1 µM
[17] = second compound 0.3 µM, first compound 0.0316 µM
[18] = second compound 0.3 µM, first compound 0.1 µM
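Note: spheroids exposed to compound for 7 days before readout.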
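Throughout, for viability, T/C: 100% = DMSO vehicle control luminescence.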

Work on `CC(C)n1nc(-c2ccc3oc(N)nc3c2)c2c(N)ncnc21` + CCn1c(-c2cc(N3CCN(C)CC3)cnc2C(C)OC)c2c3cc(ccc31)-c1csc(n1)CC(NC(=O)C1CC1C)C(=O)N1CCCC(N1)C(=O)OCC(C)(C)C2 yielded a pIC50 [1] of 7.36, a pIC50 [2] of 7.45 and a pIC50 [3] of 7.79. The pIC50 [4] was 8.28, the pIC50 [5] was > 9.50 and the pIC50 [6] was > 9.50. The viability, T/C (second compound 0.000949 µM, first compound 0.000316 µM) was 107%, the viability, T/C (second compound 0.000949 µM, first compound 0.001 µM) was 94.8% and the viability, T/C (second compound 0.000949 µM, first compound 0.00316 µM) was 73.7%. It also gave a viability, T/C (second compound 0.000949 µM, first compound 0.01 µM) of 71.5%, a viability, T/C [7] of 56.4% and a viability, T/C [8] of 38%. The viability, T/C (second compound 0.003 µM, first compound 0.000316 µM) was 88.3%, the viability, T/C (second compound 0.003 µM, first compound 0.001 µM) was 80.4% and the viability, T/C (second compound 0.003 µM, first compound 0.00316 µM) was 72.2%. It also gave a viability, T/C (second compound 0.003 µM, first compound 0.01 µM) of 68.1%, a viability, T/C [9] of 50.8% and a viability, T/C [10] of 34.9%. It also gave a viability, T/C (second compound 0.00949 µM, first compound 0.000316 µM) of 82.4%, a viability, T/C (second compound 0.00949 µM, first compound 0.001 µM) of 78.9% and a viability, T/C (second compound 0.00949 µM, first compound 0.00316 µM) of 59.4%. The viability, T/C (second compound 0.00949 µM, first compound 0.01 µM) was 56.5%, the viability, T/C [11] was 47.1% and the viability, T/C [12] was 27.2%. It also gave a viability, T/C (second compound 0.03 µM, first compound 0.000316 µM) of 60.6%, a viability, T/C (second compound 0.03 µM, first compound 0.001 µM) of 55.1% and a viability, T/C (second compound 0.03 µM, first compound 0.00316 µM) of 62.5%. The viability, T/C (second compound 0.03 µM, first compound 0.01 µM) was 37.6%, the viability, T/C [13] was 34.4% and the viability, T/C [14] was 21.5%. For the same molecule, the viability, T/C (second compound 0.0949 µM, first compound 0.000316 µM) was 46.3%, the viability, T/C (second compound 0.0949 µM, first compound 0.001 µM) was 42.1% and the viability, T/C (second compound 0.0949 µM, first compound 0.00316 µM) was 39.1%. It also gave a viability, T/C (second compound 0.0949 µM, first compound 0.01 µM) of 34.4%, a viability, T/C [15] of 27.9% and a viability, T/C [16] of 18.2%. The viability, T/C (second compound 0.3 µM, first compound 0.000316 µM) was 30.6%, the viability, T/C (second compound 0.3 µM, first compound 0.001 µM) was 32.6% and the viability, T/C (second compound 0.3 µM, first compound 0.00316 µM) was 27.9%. It also gave a viability, T/C (second compound 0.3 µM, first compound 0.01 µM) of 23.5%, a viability, T/C [17] of 20.9% and a viability, T/C [18] of 17.1%.

With `CC1(C)CCC(Nc2ncc(C(F)(F)F)c(-c3c[nH]c4c(P(C)(C)=O)c(C#N)ccc34)n2)CN1` (stereo not drawn) the viability, T/C (compound 0.000949 µM) was 89.6% and 97.1% and 84.3%, the viability, T/C (compound 0.003 µM) was 93.9% and 97.5% and 113% and the viability, T/C (compound 0.00949 µM) was 95.5% and 100% and 114%. The viability, T/C (compound 0.03 µM) was 94.3% and 100% (2×), the viability, T/C (compound 0.0949 µM) was 88.2% and 94.4% and 107% and the viability, T/C (compound 0.3 µM) was 87% and 84.8% and 87.1%. For the same molecule, the pIC50 (curve of compound) was < 6.52.

In the case of `CC(C)NCC(C(=O)N1CCN(c2ncnc3c2C(C)CC3O)CC1)c1ccc(Cl)cc1` (stereo not drawn) + CCn1c(-c2cc(N3CCN(C)CC3)cnc2C(C)OC)c2c3cc(ccc31)-c1csc(n1)CC(NC(=O)C1CC1C)C(=O)N1CCCC(N1)C(=O)OCC(C)(C)C2, the pIC50 [1] was < 5.00, the pIC50 [2] was < 5.00 and the pIC50 [3] was < 5.00. The pIC50 [4] was 5.25, the pIC50 [5] was > 7.50 and the pIC50 [6] was > 7.50. The viability, T/C [7] was 105%, the viability, T/C [8] was 107% and the viability, T/C (second compound 0.000949 µM, first compound 0.316 µM) was 96.4%. The viability, T/C (second compound 0.000949 µM, first compound 1 µM) was 91.2%, the viability, T/C (second compound 0.000949 µM, first compound 3.16 µM) was 95% and the viability, T/C (second compound 0.000949 µM, first compound 10 µM) was 103%. For the same molecule, the viability, T/C [9] was 102%, the viability, T/C [10] was 96.5% and the viability, T/C (second compound 0.003 µM, first compound 0.316 µM) was 95.4%. The viability, T/C (second compound 0.003 µM, first compound 1 µM) was 82%, the viability, T/C (second compound 0.003 µM, first compound 3.16 µM) was 84.9% and the viability, T/C (second compound 0.003 µM, first compound 10 µM) was 88%. The viability, T/C [11] was 86%, the viability, T/C [12] was 80% and the viability, T/C (second compound 0.00949 µM, first compound 0.316 µM) was 69.4%. For the same molecule, the viability, T/C (second compound 0.00949 µM, first compound 1 µM) was 73.9%, the viability, T/C (second compound 0.00949 µM, first compound 3.16 µM) was 84.8% and the viability, T/C (second compound 0.00949 µM, first compound 10 µM) was 58.8%. For the same molecule, the viability, T/C [13] was 58.2%, the viability, T/C [14] was 65.7% and the viability, T/C (second compound 0.03 µM, first compound 0.316 µM) was 57.1%. For the same molecule, the viability, T/C (second compound 0.03 µM, first compound 1 µM) was 56%, the viability, T/C (second compound 0.03 µM, first compound 3.16 µM) was 51.9% and the viability, T/C (second compound 0.03 µM, first compound 10 µM) was 47.8%. For the same molecule, the viability, T/C [15] was 45.7%, the viability, T/C [16] was 46.5% and the viability, T/C (second compound 0.0949 µM, first compound 0.316 µM) was 38.9%. For the same molecule, the viability, T/C (second compound 0.0949 µM, first compound 1 µM) was 36.3%, the viability, T/C (second compound 0.0949 µM, first compound 3.16 µM) was 40.9% and the viability, T/C (second compound 0.0949 µM, first compound 10 µM) was 33%. For the same molecule, the viability, T/C [17] was 31.9%, the viability, T/C [18] was 31.5% and the viability, T/C (second compound 0.3 µM, first compound 0.316 µM) was 30.5%. The viability, T/C (second compound 0.3 µM, first compound 1 µM) was 28.1%, the viability, T/C (second compound 0.3 µM, first compound 3.16 µM) was 24.4% and the viability, T/C (second compound 0.3 µM, first compound 10 µM) was 22.8%.

In the case of `CCc1c2c(nc3ccc(O)cc13)-c1cc3c(c(=O)n1C2)COC(=O)[C@]3(O)CC`, the viability, T/C (compound 0.000949 µM) was 108% [middle of 4 runs], the viability, T/C (compound 0.003 µM) was 93.6% [middle of 4 runs] and the viability, T/C (compound 0.00949 µM) was 84.6% [middle of 4 runs]. For the same molecule, the viability, T/C (compound 0.03 µM) was 68.7% [middle of 4 runs], the viability, T/C (compound 0.0949 µM) was 50.5% [middle of 4 runs] and the viability, T/C (compound 0.3 µM) was 32% [middle of 4 runs]. The IC50 (curve of compound) was 90.4 nM [middle of 4 runs].
